The text below walks through data of patent publication US7135466B2 (Kirin Beer Kabushiki Kaisha, priority 1999, dated 2006).

SMILES strings stand for the structures.

The target of one experiment is T1, PDGF-Ra (Homo sapiens, UniProt P16234).
T1 construct: host or cells: G-292 human osteosarcoma cells
The experiment is described as follows: Inhibitory activity against PDGF-Ra phosphorylation by PDGF-AA stimulation using G292. The format is cell-based. The following applies: for IC50: Pharmacological Test Example 1, > means inhibition at indicated concentration not more than 50%, < and << not less than 50%, read-out: PDGF (E) IC50; for inhibition at 0.1 µM: G292, figure in parentheses in >100( ), at 100 nM, read-out: PDGF (E) inhibition (%) at 100 nM. The essentials: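 Phospho-PDGF-Ra ELISA: capture with PY-20 antiphosphotyrosine, detection with anti-PDGF-Ra and peroxidase secondary, read at 450 nm. Lysates came from G-292 osteosarcoma cells starved in 0.1% FBS, compound-treated 1 hr at 37° C, and stimulated with 50 ng/ml PDGF-AA for 5 min.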

The next experiment concerns the target T2, c-kit (Homo sapiens, UniProt P10721).
T2 construct: MO7e (human megakaryocytic leukemia cell line) which had been arrested for 20 hr; endogenous in cells; host or cells: MO7e human megakaryocytic leukemia cell line
The experiment is described as follows: Inhibitory activity against c-kit autophosphorylation (MO7e cells, h-SCF). The experiment is classed as cell-based. The settings on record: MO7e cells, h-SCF 50 ng/ml; read-out: c-kit IC50. The essentials:
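MO7e cells, arrested for 20 hr, were pretreated with test compound in DMSO for 1 hr and then stimulated with 50 ng/ml h-SCF for 5 min before lysis. Lysates were captured on immobilized anti-phosphotyrosine PY-20, probed with anti-c-kit antibody and HRP anti-rabbit IgG, and read colorimetrically at 450 nm.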

T1 sequence (P16234 24-1089): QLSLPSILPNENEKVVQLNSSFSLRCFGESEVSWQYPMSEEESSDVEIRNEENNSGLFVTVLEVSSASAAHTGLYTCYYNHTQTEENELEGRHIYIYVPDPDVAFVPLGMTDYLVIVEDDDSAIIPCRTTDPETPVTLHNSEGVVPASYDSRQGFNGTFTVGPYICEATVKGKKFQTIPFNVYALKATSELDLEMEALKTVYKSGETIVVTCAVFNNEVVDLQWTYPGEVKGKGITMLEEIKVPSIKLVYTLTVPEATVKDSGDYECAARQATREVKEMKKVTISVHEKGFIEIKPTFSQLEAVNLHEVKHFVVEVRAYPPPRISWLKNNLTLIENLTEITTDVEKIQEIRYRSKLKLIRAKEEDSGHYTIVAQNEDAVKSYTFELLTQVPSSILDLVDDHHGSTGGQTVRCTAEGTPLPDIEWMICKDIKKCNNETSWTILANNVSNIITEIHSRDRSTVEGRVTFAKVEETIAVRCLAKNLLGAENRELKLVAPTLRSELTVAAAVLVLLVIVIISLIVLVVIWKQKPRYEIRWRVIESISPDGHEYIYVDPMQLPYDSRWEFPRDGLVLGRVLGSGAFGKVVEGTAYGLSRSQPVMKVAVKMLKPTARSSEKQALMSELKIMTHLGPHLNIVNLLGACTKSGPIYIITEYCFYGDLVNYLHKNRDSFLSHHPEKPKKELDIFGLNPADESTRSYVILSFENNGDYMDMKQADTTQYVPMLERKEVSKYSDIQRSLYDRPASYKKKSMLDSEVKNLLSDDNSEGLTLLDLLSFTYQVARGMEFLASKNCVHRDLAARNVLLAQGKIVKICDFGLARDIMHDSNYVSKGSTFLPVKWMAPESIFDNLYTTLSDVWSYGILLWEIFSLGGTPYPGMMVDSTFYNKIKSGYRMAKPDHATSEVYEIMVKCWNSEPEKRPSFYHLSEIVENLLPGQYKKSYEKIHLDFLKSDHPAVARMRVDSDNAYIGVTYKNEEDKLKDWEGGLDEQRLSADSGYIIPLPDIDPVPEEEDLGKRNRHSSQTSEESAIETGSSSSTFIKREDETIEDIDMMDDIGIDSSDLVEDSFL
T2 sequence (P10721 26-976): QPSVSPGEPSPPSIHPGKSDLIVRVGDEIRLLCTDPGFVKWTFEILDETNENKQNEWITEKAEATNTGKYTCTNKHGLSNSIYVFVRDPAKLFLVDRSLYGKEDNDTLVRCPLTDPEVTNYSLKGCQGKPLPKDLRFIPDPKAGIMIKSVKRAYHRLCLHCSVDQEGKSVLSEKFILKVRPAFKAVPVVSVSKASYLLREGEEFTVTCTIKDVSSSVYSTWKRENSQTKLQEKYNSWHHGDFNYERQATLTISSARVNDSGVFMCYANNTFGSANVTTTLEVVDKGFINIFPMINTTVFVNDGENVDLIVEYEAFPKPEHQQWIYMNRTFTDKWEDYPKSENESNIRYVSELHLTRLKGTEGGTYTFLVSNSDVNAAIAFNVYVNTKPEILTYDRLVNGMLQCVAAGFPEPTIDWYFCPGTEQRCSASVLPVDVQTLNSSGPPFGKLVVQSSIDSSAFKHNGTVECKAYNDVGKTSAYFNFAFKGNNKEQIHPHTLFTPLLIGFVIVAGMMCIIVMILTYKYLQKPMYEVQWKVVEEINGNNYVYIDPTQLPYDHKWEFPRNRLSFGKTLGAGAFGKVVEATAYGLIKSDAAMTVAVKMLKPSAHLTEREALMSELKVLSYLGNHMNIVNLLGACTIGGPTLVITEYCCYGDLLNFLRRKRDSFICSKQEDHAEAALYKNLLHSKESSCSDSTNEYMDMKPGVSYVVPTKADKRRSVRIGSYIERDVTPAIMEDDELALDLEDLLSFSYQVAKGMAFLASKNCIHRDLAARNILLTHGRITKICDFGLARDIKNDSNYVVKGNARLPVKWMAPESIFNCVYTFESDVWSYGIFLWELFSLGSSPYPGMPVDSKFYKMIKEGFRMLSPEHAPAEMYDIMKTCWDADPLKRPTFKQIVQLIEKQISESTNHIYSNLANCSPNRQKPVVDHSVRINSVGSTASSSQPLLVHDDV

One may read the IC50 as the concentration that inhibits the measured activity by half. Regarding `COc1cc2nccc(Oc3ccc(NC(=O)OCc4ccccc4C)c(C)c3C)c2cc1OC` [Example 232, 2-Methylbenzyl N-{4-[(6,7-dimethoxy-4-quinolyl)oxy]-2,3-dimethylphenyl}carbamate], the results for the IC50 on PDGF-Ra and on c-kit were 11 nM and 42 nM, respectively.
For `COc1cc2nccc(Oc3ccc(NC(=O)OCc4cccc(C)c4)c(C)c3C)c2cc1OC` [Example 233, 3-Methylbenzyl N-{4-[(6,7-dimethoxy-4-quinolyl)oxy]-2,3-dimethylphenyl}carbamate] the same measures were 8 nM and 52 nM.
For `COc1cc2nccc(Oc3ccc(NC(=O)OCc4ccc(C)cc4)c(C)c3C)c2cc1OC` [Example 234, 4-Methylbenzyl N-{4-[(6,7-dimethoxy-4-quinolyl)oxy]-2,3-dimethylphenyl}carbamate] the same measures were 10 nM and 46 nM.
The corresponding values for `COc1cc2nccc(Oc3ccc(NC(=O)OCc4ccccc4Cl)c(C)c3C)c2cc1OC` [Example 235, 2-Chlorobenzyl N-{4-[(6,7-dimethoxy-4-quinolyl)oxy]-2,3-dimethylphenyl}carbamate] are under 3 nM and 57 nM.
As for `COc1cc2nccc(Oc3ccc(NC(=O)OCc4cccc(Cl)c4)c(C)c3C)c2cc1OC` [Example 236, 3-Chlorobenzyl N-{4-[(6,7-dimethoxy-4-quinolyl)oxy]-2,3-dimethylphenyl}carbamate], the IC50 on PDGF-Ra is 4 nM; on c-kit, 47 nM.
For `COc1cc2nccc(Oc3ccc(NC(=O)OCc4ccc(Cl)cc4)c(C)c3C)c2cc1OC` [Example 237, 4-Chlorobenzyl N-{4-[(6,7-dimethoxy-4-quinolyl)oxy]-2,3-dimethylphenyl}carbamate] the same measures were 6 nM and 42 nM.
For `COc1cccc(COC(=O)Nc2ccc(Oc3ccnc4cc(OC)c(OC)cc34)c(C)c2C)c1` [Example 238, 3-Methoxybenzyl N-{4-[(6,7-dimethoxy-4-quinolyl)oxy]-2,3-dimethylphenyl}carbamate] the same measures were 10 nM and 36 nM.
The corresponding values for `COc1ccccc1COC(=O)Nc1cc(C)c(Oc2ccnc3cc(OC)c(OC)cc23)cc1C` [Example 239, 2-Methoxybenzyl N-{4-[(6,7-dimethoxy-4-quinolyl)oxy]-2,5-dimethylphenyl}carbamate] are 9 nM and 183 nM.
Consider `COc1cccc(COC(=O)Nc2cc(C)c(Oc3ccnc4cc(OC)c(OC)cc34)cc2C)c1` [Example 240, 3-Methoxybenzyl N-{4-[(6,7-dimethoxy-4-quinolyl)oxy]-2,5-dimethylphenyl}carbamate], for which the IC50 at PDGF-Ra is 17 nM; at c-kit it was 248 nM.
The corresponding values for `COc1cc2nccc(Oc3cc(C)c(NC(=O)OCc4ccccc4Cl)cc3C)c2cc1OC` [Example 241, 2-Chlorobenzyl N-{4-[(6,7-dimethoxy-4-quinolyl)oxy]-2,5-dimethylphenyl}carbamate] are 12 nM and 232 nM.
For the compound `COc1cc2nccc(Oc3cc(C)c(NC(=O)OCc4cccc(Cl)c4)cc3C)c2cc1OC` [Example 242, 3-Chlorobenzyl N-{4-[(6,7-dimethoxy-4-quinolyl)oxy]-2,5-dimethylphenyl}carbamate], the IC50 on PDGF-Ra turned out to be 21 nM; at c-kit it was 192 nM.
`COc1cc2nccc(Oc3cc(C)c(NC(=O)OCc4ccc(Cl)cc4)cc3C)c2cc1OC` [Example 243, 4-Chlorobenzyl N-{4-[(6,7-dimethoxy-4-quinolyl)oxy]-2,5-dimethylphenyl}carbamate]: the figures for the IC50 at PDGF-Ra and at c-kit were 20 nM and 190 nM, respectively.
For `CCCOC(=O)Nc1cc(C)c(Oc2ccnc3cc(OC)c(OC)cc23)cc1C` [Example 244, Propyl N-{4-[(6,7-dimethoxy-4-quinolyl)oxy]-2,5-dimethylphenyl}carbamate] the same measures were 27 nM and 69 nM.
The corresponding values for `COc1cc2nccc(Oc3cc(C)c(NC(=O)OCc4ccccc4C)cc3C)c2cc1OC` [Example 245, 2-Methylbenzyl N-{4-[(6,7-dimethoxy-4-quinolyl)oxy]-2,5-dimethylphenyl}carbamate] are 16 nM and 408 nM.
Consider `COc1cc2nccc(Oc3cc(C)c(NC(=O)OCc4ccc5ccccc5c4)cc3C)c2cc1OC` [Example 246, 2-Naphthylmethyl N-{4-[(6,7-dimethoxy-4-quinolyl)oxy]-2,5-dimethylphenyl}carbamate], for which the IC50 on PDGF-Ra came to 58 nM; at c-kit, 243 nM.
For `CCCOC(=O)Nc1ccc(Oc2ccnc3cc(OC)c(OC)cc23)cc1` [Example 247, Propyl N-{4-[(6,7-dimethoxy-4-quinolyl)oxy]phenyl}carbamate] the same measures were 3 nM and 40 nM.
For `COc1ccccc1COC(=O)Nc1ccc(Oc2ccnc3cc(OC)c(OC)cc23)cc1` [Example 248, 2-Methoxybenzyl N-{4-[(6,7-dimethoxy-4-quinolyl)oxy]phenyl}carbamate] the same measures were 11 nM and 147 nM.
The corresponding values for `COc1ccc(COC(=O)Nc2ccc(Oc3ccnc4cc(OC)c(OC)cc34)cc2)cc1` [Example 249, 4-Methoxybenzyl N-{4-[(6,7-dimethoxy-4-quinolyl)oxy]phenyl}carbamate] are 4 nM and 57 nM.
For `COc1cc2nccc(Oc3ccc(NC(=O)OCc4ccccc4C)cc3)c2cc1OC` [Example 250, 2-Methylbenzyl N-{4-[(6,7-dimethoxy-4-quinolyl)oxy]phenyl}carbamate], the values for the IC50 at PDGF-Ra and at c-kit were 4 nM and 184 nM, respectively.
For `COc1cc2nccc(Oc3ccc(NC(=O)OCc4cccc(C)c4)cc3)c2cc1OC` [Example 251, 3-Methylbenzyl N-{4-[(6,7-dimethoxy-4-quinolyl)oxy]phenyl}carbamate] the same measures were 6 nM and 185 nM.
For `COc1cc2nccc(Oc3ccc(NC(=O)OCc4ccc(C)cc4)cc3)c2cc1OC` [Example 252, 4-Methylbenzyl N-{4-[(6,7-dimethoxy-4-quinolyl)oxy]phenyl}carbamate] the same measures were 6 nM and 111 nM.
Regarding `COc1cc2nccc(Oc3cc(C)c(NC(=O)OCc4ccccc4C)cc3C)c2cc1OC` [Example 253, 2-Methylbenzyl N-{4-[(6,7-dimethoxy-4-quinolyl)oxy]-2,5-dimethylphenyl}carbamate], the IC50 at PDGF-Ra stood at 17 nM; on c-kit it was 514 nM.
The inhibition is how much of the control response was suppressed. Take `COc1cc2nccc(Oc3cc(C)c(NC(=O)OCc4cccc(C)c4)cc3C)c2cc1OC` [Example 254, 3-Methylbenzyl N-{4-[(6,7-dimethoxy-4-quinolyl)oxy]-2,5-dimethylphenyl}carbamate]: at PDGF-Ra, the inhibition at 0.1 µM came out at 27% and the IC50 is over 100 nM. In addition, the IC50 at c-kit came to 396 nM.
For `COc1cc2nccc(Oc3cc(C)c(NC(=O)OCc4ccc(C)cc4)cc3C)c2cc1OC` [Example 255, 4-Methylbenzyl N-{4-[(6,7-dimethoxy-4-quinolyl)oxy]-2,5-dimethylphenyl}carbamate] the same measures were 36%, over 100 nM and 309 nM.
As for `CCCCCCOC(=O)Nc1ccc(Oc2ccnc3cc(OC)c(OC)cc23)cc1` [Example 256, Hexyl N-{4-[(6,7-dimethoxy-4-quinolyl)oxy]phenyl}carbamate], the IC50 at PDGF-Ra is under 3 nM; at c-kit, 15 nM.
For `CCCCc1ccc(OC(=O)Nc2ccc(Oc3ccnc4cc(OC)c(OC)cc34)cc2)cc1` [Example 257, 4-Butylphenyl N-{4-[(6,7-dimethoxy-4-quinolyl)oxy]phenyl}carbamate] the same measures were 6 nM and 22 nM.
For `CCCC(CC)OC(=O)Nc1ccc(Oc2ccnc3cc(OC)c(OC)cc23)cc1` (stereo not drawn) [Example 258, 1-Ethylbutyl N-{4-[(6,7-dimethoxy-4-quinolyl)oxy]phenyl}carbamate], the IC50 stood at 3 nM at PDGF-Ra and 178 nM on c-kit.
The corresponding values for `COc1cc2nccc(Oc3ccc(NC(=O)Oc4ccc(C(C)(C)C)cc4)cc3)c2cc1OC` [Example 259, 4-(Tert-butyl)phenyl N-{4-[(6,7-dimethoxy-4-quinolyl)oxy]phenyl}carbamate] are 34 nM and 184 nM.
For `COc1cc2nccc(Oc3ccc(NC(=O)Oc4ccccc4OC)cc3)c2cc1OC` [Example 260, 2-Methoxyphenyl N-{4-[(6,7-dimethoxy-4-quinolyl)oxy]phenyl}carbamate] the same measures were 6 nM and 180 nM.
For `CCCCCCOC(=O)Nc1ccc(Oc2ccnc3cc(OC)c(OC)cc23)c(C)c1C` [Example 261, Hexyl N-{4-[(6,7-Dimethoxy-4-quinolyl)oxy]-2,3-dimethylphenyl}carbamate] the same measures were 4 nM and 44 nM.
`CCCCCCOC(=O)Nc1cc(C)c(Oc2ccnc3cc(OC)c(OC)cc23)cc1C` [Example 262, Hexyl N-{4-[(6,7-dimethoxy-4-quinolyl)oxy]-2,5-dimethylphenyl}carbamate]: the IC50 at PDGF-Ra was 7 nM; at c-kit, 83 nM.
For `CCC(OC(=O)Nc1ccc(Oc2ccnc3cc(OC)c(OC)cc23)cc1)c1ccccc1` (stereo not drawn) [Example 263, 1-Phenylpropyl N-{4-[(6,7-dimethoxy-4-quinolyl)oxy]phenyl}carbamate] the same measures were 10 nM and 329 nM.
